{"source": "patent US20130108573A1", "about": "“Bile Acid Recycling Inhibitors for Treatment of Hypercholemia and Cholestatic Liver Disease” (Lumena Pharmaceuticals, Inc., priority 2011, published 2013)", "key": {"[1]": {"test_system": "serum bile acids", "test": "Human study of LUM001 lowering fasting and post-prandial peak serum bile acids in children and adolescents", "format": "in vivo", "conditions": "for Fasting serum bile acid / Morning Post-prandial peak: after eight days of dosing", "experimental": "(§1) LUM001 has been administered to forty patients under the age of 18 years old. […] The drug was administered once-a-day (QD) in the morning for fourteen days. […] These doses are similar to those using to treat patients with cholestatic diseases.\nThe efficacy of LUM001 was determined by measuring total serum bile acids after eight days of dosing in children and adolescents under the age of eighteen. Thirty minutes before the next drug administration, at approximately 8 am in the morning, serum bile acid levels were measured. The child had refrained from food for 12 hours prior to this sample thus providing a fasted level of serum bile acid. After breakfast, serum bile acids were measured for up to the next 4 hours (8 am to noon) and the peak serum bile acid concentration noted."}, "[2]": {"test": "Pediatric multiple-dose study of LUM-001: tolerability", "format": "in vivo, human", "conditions": "2 weeks daily up to 5 mg q.d., 39 treated subjects aged 10-17", "source_text": "(39 treated subjects aged 10-17)."}, "[3]": {"test_system": "Dog Serum Bile Acids", "test": "Duration of action of LUM001 on dog serum bile acids, Method 2: one meal, extended interval between dosing and feeding", "format": "in vivo, beagle dogs", "conditions": "feeding time 2 hr"}, "[4]": {"test": "Pharmacokinetics of LUM001 in subjects under 18 years (study NB-00-02-014): systemic exposure", "format": "in vivo, human", "conditions": "for Average serum drug exposure: day eight", "experimental": "as §1"}, "[5]": {"test_system": "Dog Serum Bile Acids", "test": "Duration of action of LUM001 on dog serum bile acids, Method 1: two meals for extended SBA elevation", "format": "in vivo, beagle dogs", "conditions": "for Serum Bile Acid, Mean: dogs n = 6, full meal at 0 hr, dosed at 1 hr, one-half meal at 4 hr", "experimental": "LUM001 was dissolved in water at concentrations that required the administration of 0.2 ml/kg of solution. Solutions were placed into gelatin capsules, Torpac Inc., size 13 Batch 594, East Hanover N.J., and administered orally.\nMale beagle dogs were obtained from Covance Research Products, Cumberland Va. or Marshall Farms USA, Inc., North Rose N.Y. A total of 20 dogs, 1 to 5 years old, 6.8 to 15.6 kg body weight, were used in these experiments. The dogs were conditioned to a 12 hour light/dark cycle and maintained on a feeding restriction of 1 hour per day access to food (Richman Standard Certified Canine Diet #5007, PMI Nutrition, Inc., St Louis Mo.) from 7 to 8 AM. They were trained to eat a special meal promptly within 20 minutes when presented (1 can. 397 g, Evanger's 100% Beef for Dogs, Evanger's Dog and Cat Food Co., Inc., Wheeling Ill., mixed with 50 g of sharp cheddar cheese.).\nSBA was measured by an enzymatic assay. SBA values are expressed as μg of total bile acids/ml of serum.\nIn dogs a single experimental meal produces a postprandial rise in SBA that is elevated to a peak at 1 hour after feeding and constant for an additional 3 hours. Previous experiments (2) indicate that LUM001 remains active for more than 4.5 hours. To measure the duration of action of an ASBT inhibitor using postprandial SBA levels requires that in the control situation the SBA levels remain elevated and constant for the entire period of compound action, or that the compound be administered long before the postprandial rise occurs, and remain active in the empty digestive system for long periods before feeding. Accordingly, two alternative methods were used to provide a window of constant SBA elevation that could be used to measure the duration of action of ASBT inhibitors.\nLUM001 was administered at 0.05 and 0.2 mg/kg, p.o. to 6 dogs 1 hr after feeding them a meal. At 4 hours after the meal was offered, a second meal of ½ the size of the first meal was offered. It too was consumed as promptly and thoroughly as the first meal, and provided an extended, constant SBA plateau. Blood samples for SBA measurement were taken at 0, 1, 1.5, 2, 4, 4.5, 5, 5.5, 6, 6.5, 7, 7.5 and 8 hours from the time of offering the first meal. Mean SBA levels were compared to the mean SBA level at 1 hour, each dog serving as its own control."}, "[6]": {"conditions": "patient 401, drug dose 2.5 mg QD"}}, "note": "Marks after values point to notes of the source that are not given here."}
{"smiles": "CCCCC1(CCCC)CS(=O)(=O)c2ccc(N(C)C)cc2[C@@H](c2ccc(OCc3ccc(C[N+]45CCN(CC4)CC5)cc3)cc2)[C@H]1O", "note": "[LUM001]", "values": [{"measurement": "Decrease of average fasting serum bile acid level vs placebo patients", "setting": "[1]; LUM001 1-5 mg QD", "result": 24, "unit": "%"}, {"measurement": "Decrease of average post-prandial peak serum bile acid level vs placebo patients", "setting": "[1]; LUM001 1-5 mg QD", "result": 23, "unit": "%"}, {"measurement": "Average fasting serum bile acid level of LUM001 treated patients", "setting": "[1]; LUM001 1-5 mg QD, placebo patients 8.6 μmol/L", "result": 6.5, "unit": "µmol/L"}, {"measurement": "Average post-prandial peak serum bile acid level of LUM001 treated patients", "setting": "[1]; LUM001 1-5 mg QD, placebo patients 11.9 μmol/L", "result": 9.2, "unit": "µmol/L"}, {"measurement": "Fasting serum bile acid", "setting": "[1]; patient 304, drug dose 1 mg QD", "result": 5.6, "unit": "µmol/L"}, {"measurement": "Morning Post-prandial peak", "setting": "[1]; patient 304, drug dose 1 mg QD", "result": 8.4, "unit": "µmol/L"}, {"measurement": "Fasting serum bile acid", "setting": "[1]; patient 308, drug dose 1 mg QD", "result": 6.8, "unit": "µmol/L"}, {"measurement": "Morning Post-prandial peak", "setting": "[1]; patient 308, drug dose 1 mg QD", "result": 9.3, "unit": "µmol/L"}, {"measurement": "Fasting serum bile acid", "setting": "[1]; patient 309, drug dose 1 mg QD", "result": 6.9, "unit": "µmol/L"}, {"measurement": "Morning Post-prandial peak", "setting": "[1]; patient 309, drug dose 1 mg QD", "result": 10.0, "unit": "µmol/L"}, {"measurement": "Fasting serum bile acid", "setting": "[1]; [6]", "result": 6.0, "unit": "µmol/L"}, {"measurement": "Morning Post-prandial peak", "setting": "[1]; [6]", "result": 6.8, "unit": "µmol/L"}, {"measurement": "Fasting serum bile acid", "setting": "[1]; patient 510, drug dose 5 mg QD", "result": 7.4, "unit": "µmol/L"}, {"measurement": "Morning Post-prandial peak", "setting": "[1]; patient 510, drug dose 5 mg QD", "result": 11.3, "unit": "µmol/L"}, {"measurement": "Tolerability", "setting": "[2]", "result": "well-tolerated"}, {"measurement": "Serum Bile Acid, Mean", "setting": "[3]; dogs n = 6, 0.2 mg/kg p.o., dosing time 0 hr, time 3 hr", "result": "4.1* μg/ml"}, {"measurement": "Serum Bile Acid, Mean", "setting": "[3]; dogs n = 6, 0.2 mg/kg p.o., dosing time 0 hr, time 4 hr", "result": "6.5* μg/ml"}, {"measurement": "Serum Bile Acid, Mean", "setting": "[3]; dogs n = 9, 0.05 mg/kg p.o., dosing time 0 hr, time 0 hr", "result": 1.7, "unit": "µg/mL"}, {"measurement": "Serum Bile Acid, Mean", "setting": "[3]; dogs n = 9, 0.05 mg/kg p.o., dosing time 0 hr, time 2 hr", "result": 2.0, "unit": "µg/mL"}, {"measurement": "Serum Bile Acid, Mean", "setting": "[3]; dogs n = 9, 0.05 mg/kg p.o., dosing time 0 hr, time 3 hr", "result": "9.0* μg/ml"}, {"measurement": "Serum Bile Acid, Mean", "setting": "[3]; dogs n = 9, 0.05 mg/kg p.o., dosing time 0 hr, time 4 hr", "result": 10.8, "unit": "µg/mL"}, {"measurement": "Serum Bile Acid, Mean", "setting": "[3]; dogs n = 9, 0.05 mg/kg p.o., dosing time 0 hr, time 5 hr", "result": 10.6, "unit": "µg/mL"}, {"measurement": "Serum Bile Acid, Mean", "setting": "[3]; dogs n = 9, 0.05 mg/kg p.o., dosing time 0.5 hr, time 0.5 hr", "result": 1.8, "unit": "µg/mL"}, {"measurement": "Serum Bile Acid, Mean", "setting": "[3]; dogs n = 9, 0.05 mg/kg p.o., dosing time 0.5 hr, time 2 hr", "result": 1.7, "unit": "µg/mL"}, {"measurement": "Serum Bile Acid, Mean", "setting": "[3]; dogs n = 9, 0.05 mg/kg p.o., dosing time 0.5 hr, time 2.5 hr", "result": 2.5, "unit": "µg/mL"}, {"measurement": "Serum Bile Acid, Mean", "setting": "[3]; dogs n = 9, 0.05 mg/kg p.o., dosing time 0.5 hr, time 3 hr", "result": 9.7, "unit": "µg/mL"}, {"measurement": "Serum Bile Acid, Mean", "setting": "[3]; dogs n = 9, 0.05 mg/kg p.o., dosing time 0.5 hr, time 4 hr", "result": 12.4, "unit": "µg/mL"}, {"measurement": "Serum Bile Acid, Mean", "setting": "[3]; dogs n = 9, 0.05 mg/kg p.o., dosing time 0.5 hr, time 5 hr", "result": 11.6, "unit": "µg/mL"}, {"measurement": "Systemic exposure (absorption) of LUM001", "setting": "[4]; patients under the age of 18, once-a-day in the morning for fourteen days, measured on day eight", "result": "minimally absorbed"}, {"measurement": "Average serum drug exposure", "setting": "[4]; subject 0304, LUM001 1.0 mg QD (24.3 μg/kg)", "result": 0.0, "unit": "ng/mL"}, {"measurement": "Average serum drug exposure", "setting": "[4]; subject 0309, LUM001 1.0 mg QD (35.0 μg/kg)", "result": 0.0, "unit": "ng/mL"}, {"measurement": "Serum Bile Acid, Mean", "setting": "[5]; 0.05 mg/kg p.o., time 0 hr", "result": 1.4, "unit": "µg/mL"}, {"measurement": "Serum Bile Acid, Mean", "setting": "[5]; 0.05 mg/kg p.o., time 1 hr", "result": 9.2, "unit": "µg/mL"}, {"measurement": "Serum Bile Acid, Mean", "setting": "[5]; 0.05 mg/kg p.o., time 1.5 hr", "result": 9.6, "unit": "µg/mL"}, {"measurement": "Serum Bile Acid, Mean", "setting": "[5]; 0.05 mg/kg p.o., time 2 hr", "result": 6.7, "unit": "µg/mL"}, {"measurement": "Serum Bile Acid, Mean", "setting": "[5]; 0.05 mg/kg p.o., time 4 hr", "result": "5.1* μg/ml"}, {"measurement": "Serum Bile Acid, Mean", "setting": "[5]; 0.05 mg/kg p.o., time 4.5 hr", "result": 6.4, "unit": "µg/mL"}, {"measurement": "Serum Bile Acid, Mean", "setting": "[5]; 0.05 mg/kg p.o., time 5 hr", "result": 7.0, "unit": "µg/mL"}, {"measurement": "Serum Bile Acid, Mean", "setting": "[5]; 0.05 mg/kg p.o., time 6 hr", "result": 7.0, "unit": "µg/mL"}, {"measurement": "Serum Bile Acid, Mean", "setting": "[5]; 0.05 mg/kg p.o., time 7 hr", "result": 7.4, "unit": "µg/mL"}, {"measurement": "Serum Bile Acid, Mean", "setting": "[5]; 0.05 mg/kg p.o., time 8 hr", "result": 6.5, "unit": "µg/mL"}, {"measurement": "Serum Bile Acid, Mean", "setting": "[5]; 0.2 mg/kg p.o., time 0 hr", "result": 1.3, "unit": "µg/mL"}, {"measurement": "Serum Bile Acid, Mean", "setting": "[5]; 0.2 mg/kg p.o., time 1 hr", "result": 11.1, "unit": "µg/mL"}, {"measurement": "Serum Bile Acid, Mean", "setting": "[5]; 0.2 mg/kg p.o., time 1.5 hr", "result": 9.1, "unit": "µg/mL"}, {"measurement": "Serum Bile Acid, Mean", "setting": "[5]; 0.2 mg/kg p.o., time 2 hr", "result": "3.8* μg/ml"}, {"measurement": "Serum Bile Acid, Mean", "setting": "[5]; 0.2 mg/kg p.o., time 4 hr", "result": "2.5* μg/ml"}, {"measurement": "Serum Bile Acid, Mean", "setting": "[5]; 0.2 mg/kg p.o., time 4.5 hr", "result": "3.3* μg/ml"}, {"measurement": "Serum Bile Acid, Mean", "setting": "[5]; 0.2 mg/kg p.o., time 5 hr", "result": "3.1* μg/ml"}, {"measurement": "Serum Bile Acid, Mean", "setting": "[5]; 0.2 mg/kg p.o., time 6 hr", "result": "3.6* μg/ml"}, {"measurement": "Serum Bile Acid, Mean", "setting": "[5]; 0.2 mg/kg p.o., time 7 hr", "result": "3.9* μg/ml"}, {"measurement": "Serum Bile Acid, Mean", "setting": "[5]; 0.2 mg/kg p.o., time 8 hr", "result": "5.8* μg/ml"}, {"measurement": "Time after dosing beyond which the significant SBA decrease was not sustained", "setting": "[5]; dogs, 0.05 mg/kg orally 1 hour after feeding", "result": "≤ 3", "unit": "h"}, {"measurement": "Time serum bile acid levels remained significantly lowered", "setting": "[5]; dogs, 0.2 mg/kg orally 1 hour after feeding", "result": "at least 6 hours"}]}
